Assay results: patent publication US7846944B2, “Pyrazolo-pyridinone compounds and methods of use thereof” (Amgen Inc., priority 2007, dated 2010)

Key:
recombinant human p38α = recombinant human p38α (Homo sapiens, UniProt Q16539); assay: Purified and activated recombinant human p38α HTRF kinase assay; assay type: biochemical; details: 1 nM p38α, 50 μM ATP, GST-ATF2 substrate, read-out: p38a IC50
Protocol: Purified and Activated Recombinant Human p38α Assay
• Kinase Reaction Buffer: Kinase reaction buffer for p38α HTRF assays consists of 50 mM Tris-pH 7.5, 5 mM MgCl2, 0.1 mg/mL BSA, 100 μM Na3VO4 and 0.5 mM DTT. • HTRF Detection Buffer: HTRF detection buffer contains 100 mM HEPES-pH 7.5, 100 mM NaCl, 0.1% BSA, 0.05% Tween-20, and 10 mM EDTA. • Serial Dilution of Compounds: Compounds were dissolved in 100% DMSO and serially diluted (3 fold, 10 point) in a polypropylene 96-well microtiter plate (drug plate). The final starting concentration of compounds in the p38α enzymatic assays was 1 μM. Columns 6 and 12 (HI controls and LO controls respectively) in the drug plate were reserved as controls and contained only DMSO. • Kinase Reaction The p38α kinase reactions were carried out in a polypropylene 96-well black round bottom assay plate in total volume of 30 μL kinase reaction buffer. Appropriate concentration of purified and activated enzyme (recombinant human) was mixed with indicated concentration of ATP and 100 nM GST-ATF2-Avitag, in the presence or absence (HI control) of Compound. See table below for actual concentrations. In the absence of substrate, the background was measured as LO control. The reaction was allowed to incubate for 1 hour at RT. • Assay Reagent Concentrations: The final reagent concentrations were 1 nM p38α and 50 μM ATP. […] After 60 minutes incubation at room temperature, the assay plate was read in a Discovery Plate Reader. The wells were excited with coherent 320 nm light and the ratio of delayed ([…] post excitation) emissions at […] (native europium fluorescence) and 665 nm (europium fluorescence transferred to allophycocyanin—an index of substrate phosphorylation) was determined (Park et al, 1999). • Data Analysis: The proportion of substrate phosphorylated in the kinase reaction in the presence of compound compared with that phosphorylated in the presence of DMSO vehicle alone (HI control) was calculated using the formula: % control (POC)=(compound−average LO)/(average HI−average LO)*100. Data (consisting of POC and inhibitor concentration in μM) was fitted to a 4-parameter equation (y=A+((B−A)/(1+((x/C)^D))), where A is the minimum y (POC) value, B is the maximum y (POC), C is the x (compound concentration) at the point of inflection and D is the slope factor, using a Levenburg-Marquardt non-linear regression algorithm.
The inhibition constant (Ki) of the inhibitor was estimated from the IC50 (compound concentration at the point of inflection C) using the Cheng-Prussof equation: Ki=IC50/(1+S/Km), where S is the ATP substrate concentration, and Km is the Michaelis constant for ATP as determined experimentally. All results were expressed as the mean±the standard error of the mean. Data acquisition and non-linear regression algorithms were performed using Activity Base v5.2 and XL-fit software v4.1 respectively. All data was archived using Activity Base v5.2 software.

[1] = system: TNF-α secretion by LPS-treated THP1 cells; assay: Lipopolysaccharide-activated THP1 cell TNF production assay; assay type: cell-based; details: Homo sapiens, THP-1; LPS, 3 hours, THP1 cells; read-out: IC50 in the THP-1 cellular TNF production assay
Protocol: Lipopolysaccharide-Activated THP1 Cell TNF Production Assay
THP1 cells were resuspended in fresh THP1 media (RPMI 1640, 10% heat-inactivated FBS, 1×PGS, 1×NEAA, plus 30 μM βME) at a concentration of 1.5×10^6 cells per mL. One hundred microliters of cells per well were plated in a polystyrene 96-well tissue culture plate. 1.5 micrograms per mL of bacterial LPS was prepared in THP1 media and transferred to the first 11 columns of a 96-well polypropylene plate. Column 12 contained only THP1 media for the LO control. Compounds were dissolved in 100% DMSO and serially diluted 3 fold in a polypropylene 96-well microtiter plate (drug plate). Columns 6 and 12 were reserved as controls (HI controls and LO controls respectively) and contained only DMSO. 10 μL of LPS followed by one microliter of inhibitor compound from the drug plate was transferred to the cell plate. The treated cells were induced to synthesize and secrete TNF-α in a 37° C. humidified incubator with 5% CO2 for 3 hours. Fifty microliters of conditioned media was transferred to a 96-well MULTI-ARRAY™ 96-well small spot plate—custom coated with MAB610 containing 100 μL of 2× Read Buffer P supplemented with 0.34 nM AF210NA polyclonal Ab labeled with ruthenium (MSD-Sulfo-TAG™-NHS ester). After an overnight incubation at room temperature with shaking, the reaction was read on the Sector Imager™ 6000. […] The amount of secreted TNF-α in the presence of AMG compounds compared with that in the presence of DMSO vehicle alone (HI control) was calculated using the formula: % control (POC)=(cpd−average LO)/(average HI−averageLO)*100. Data (consisting of POC and inhibitor concentration in μM) was fitted to a 4-parameter equation (y=A+((B−A)/(1+((x/C)^D))), where A is the minimum y (POC) value, B is the maximum y (POC), C is the x (cpd concentration) at the point of inflection and D is the slope factor) using a Levenburg-Marquardt non-linear regression algorithm.

Chain of recombinant human p38α (Q16539 whole entry): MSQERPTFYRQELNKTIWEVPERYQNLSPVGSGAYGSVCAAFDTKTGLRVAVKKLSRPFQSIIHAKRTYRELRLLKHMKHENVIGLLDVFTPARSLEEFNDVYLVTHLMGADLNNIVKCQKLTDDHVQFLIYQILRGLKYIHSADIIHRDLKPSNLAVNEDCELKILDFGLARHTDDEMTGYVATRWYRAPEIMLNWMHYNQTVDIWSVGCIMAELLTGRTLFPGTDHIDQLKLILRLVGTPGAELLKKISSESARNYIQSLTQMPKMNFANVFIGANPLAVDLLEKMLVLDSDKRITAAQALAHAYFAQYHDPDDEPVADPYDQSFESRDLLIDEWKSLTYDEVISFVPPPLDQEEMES

Structure (SMILES)	IC50 (recombinant human p38α)	IC50 [1]
Cc1ccc(C(=O)Nc2ccnn2C)cc1-c1cc2cnn(-c3c(F)cccc3F)c2n(C)c1=O [Example 10, 3-(1-(2,6-difluorophenyl)-7-methyl-6-oxo-6,7-dihydro-1H-pyrazolo[3,4-b]pyridin-5-yl)-4-methyl-N-(1-methyl-1H-pyrazol-5-yl)benzamide]	2.9 nM	≤ 175 nM
Cc1ccccc1-n1ncc2cc(-c3cc(C(=O)NC4CC4)cc(F)c3C)c(=O)n(C)c21 [Example 15, N-cyclopropyl-3-fluoro-4-methyl-5-(7-methyl-1-(2-methylphenyl)-6-oxo-6,7-dihydro-1H-pyrazolo[3,4-b]pyridin-5-yl)benzamide]	5.2 nM	≤ 175 nM
Cc1c(F)cc(C(=O)NC(C)C)cc1-c1cc2cnn(-c3c(F)cccc3F)c2n(C)c1=O [Example 21, 3-(1-(2,6-difluorophenyl)-7-methyl-6-oxo-6,7-dihydro-1H-pyrazolo[3,4-b]pyridin-5-yl)-5-fluoro-4-methyl-N-(1-methylethyl)benzamide]	7 nM	≤ 175 nM
CNC(=O)c1cc(F)c(C)c(-c2cc3cnn(-c4c(F)cccc4F)c3n(C)c2=O)c1 [Example 22, 3-(1-(2,6-difluorophenyl)-7-methyl-6-oxo-6,7-dihydro-1H-pyrazolo[3,4-b]pyridin-5-yl)-5-fluoro-N,4-dimethylbenzamide]	6.2 nM	≤ 175 nM
Cn1c(=O)c(-c2cc(C(=O)NC3CC3)ccc2Cl)cc2cnn(-c3ccc(F)cc3)c21 [Example 53, 4-chloro-N-cyclopropyl-3-(1-(4-fluorophenyl)-7-methyl-6-oxo-6,7-dihydro-1H-pyrazolo[3,4-b]pyridin-5-yl)benzamide]	6 nM	≤ 175 nM

More lines, now with the values ahead:

IC50 (recombinant human p38α)	IC50 [1]	Structure (SMILES)
2.6 nM	≤ 175 nM	Cc1ccc(C(=O)NC2CC2)cc1-c1cc2cnn(-c3c(F)cccc3F)c2n(C)c1=S [Example 34, N-cyclopropyl-3-(1-(2,6-difluorophenyl)-7-methyl-6-thioxo-6,7-dihydro-1H-pyrazolo[3,4-b]pyridin-5-yl)-4-methylbenzamide]
2.5 nM	≤ 175 nM	CCn1c(=O)c(-c2cc(C(=O)NC3CC3)cc(F)c2C)cc2cnn(-c3ccccc3F)c21 [Example 6, N-cyclopropyl-3-(7-ethyl-1-(2-fluorophenyl)-6-oxo-6,7-dihydro-1H-pyrazolo[3,4-b]pyridin-5-yl)-5-fluoro-4-methylbenzamide]
2.6 nM	≤ 175 nM	Cc1c(F)cc(C(=O)NC2CC2)cc1-c1cc2cnn(-c3ccc(F)cc3F)c2n(C)c1=O [Example 11, N-cyclopropyl-3-(1-(2,4-difluorophenyl)-7-methyl-6-oxo-6,7-dihydro-1H-pyrazolo[3,4-b]pyridin-5-yl)-5-fluoro-4-methylbenzamide]
6.1 nM	≤ 175 nM	Cc1ccc(C(=O)NC2CC2)cc1-c1cc2cnn(-c3ccc(F)cc3)c2n(C)c1=O [Example 52, N-cyclopropyl-3-(1-(4-fluorophenyl)-7-methyl-6-oxo-6,7-dihydro-1H-pyrazolo[3,4-b]pyridin-5-yl)-4-methylbenzamide]
4.9 nM	≤ 175 nM	CCn1c(=O)c(-c2cc(C(=O)NC3CC3)ccc2C)cc2cnn(-c3ccc(F)cc3F)c21 [Example 46, N-cyclopropyl-3-(1-(2,4-difluorophenyl)-7-ethyl-6-oxo-6,7-dihydro-1H-pyrazolo[3,4-b]pyridin-5-yl)-4-methylbenzamide]
34 nM	≤ 175 nM	Cc1ccc(C(=O)NC2CC2)cc1-c1cc2cnn(-c3ccc(F)cc3F)c2n(CC(O)CO)c1=O (stereo not drawn) [Example 35, N-cyclopropyl-3-(1-(2,4-difluorophenyl)-7-(2,3-dihydroxypropyl)-6-oxo-6,7-dihydro-1H-pyrazolo[3,4-b]pyridin-5-yl)-4-methylbenzamide]
21 nM	≤ 175 nM	Cn1c(=O)c(-c2cc(C(=O)NC3CC3)ccc2CO)cc2cnn(-c3c(F)cccc3F)c21 [Example 32, N-cyclopropyl-3-(1-(2,6-difluorophenyl)-7-methyl-6-oxo-6,7-dihydro-1H-pyrazolo[3,4-b]pyridin-5-yl)-4-(hydroxymethyl)benzamide]
